As usually defined, the IC50 is the concentration needed to halve the response being measured.

Test [1] concerns B cell activation in rat whole blood. The test can be described thus: Determination of B cell activity in whole blood of rats (anti-rat IgD induced B cell activation, flow cytometry). The format is cell-based. The settings on record: anti-rat immunoglobulin D 10 μg/mL, 18 hours, inhibition of B cell activation. Here is the method: Example 4 Determination of B Cell Activity in Whole Blood of Rats
1. Reagents and Materials
Peripheral whole blood of female Wistar rats;
In the determination of the compound activity, the collected peripheral whole blood of rat was added to a 96 well plate at 80 μL/well and cultured in a 5% CO2, 37° C. cell incubator. After half an hour, the test compound was diluted with PBS in a 3-fold gradient to the corresponding concentrations, and then the diluted test compound with different concentrations was added to the culture system of rat whole blood at 10 μL/well (the final concentration of the test compound was 1.0, 0.33, 0.11, 0.037, 0.012, 0.0041, 0.0014, and 0.0005 μM, the final concentration of DMSO was 0.3%, double replicate wells), or the control solution (0.3% DMSO, 6 replicate wells) was added to the corresponding well at 10 μL/well, which were incubated in the cell incubator for one hour. Then 10 μL/well of anti-rat immunoglobulin D diluted in PBS (the final concentration was 10 μg/mL) was add to the treating wells of the test compound and control wells for anti-rat immunoglobulin D, or 10 μL/well of PBS was added to the negative control wells, which were mixed well to continue the culture in a 5% CO2, 37° C. cell incubator, and incubated for 18 hours.
On the second day, the 96-well plates were taken out and the flow cytometry antibody mixture (the final concentration of anti-rat B220PE antibody was 1 μg/mL and the final concentration of anti-rat CD86 FITC antibody was 1 μg/mL) diluted with PBS was added to each well of plate, which were incubated for 30 minutes in the dark, and then 50 μL of blood from each well was pipetted to the freshly prepared 500 μL of lysis buffer to lyse red blood cells. The plates were shaken for 20 minutes, centrifuged to remove the supernatant, then washed, fixed, and detected on a flow cytometer.
The B cell activation in the sample was determined by flow dyeing method.
The average value of the proportion of activated B cells in the wells with anti-rat immunoglobulin D but without the test compound was used as the control treating well for anti-rat immunoglobulin D, and the average value of the proportion of activated B cells in the wells without immunoglobulin D stimulation and without the test compound was used as the negative control treating well. According to the B cell activation ratio in each well, the inhibition ratio (%) of each concentration was calculated, and then the IC50 value was obtained by using the 205 model in XL-Fit 5.3 software (ID Business Solutions Limited).
The inhibition ratio is calculated as follows: inhibition ratio (%)=100%−{(treating well for the test compound−negative control treating well)/(control treating well for anti-rat immunoglobulin D−negative control treating well)}×100%, wherein,
Treating well for the test compound: represents the B cell activation ratio in rat whole blood treated with anti-rat immunoglobulin D and the test compound.
Control treating well for anti-rat immunoglobulin D: represents the B cell activation ratio in rat whole blood treated with anti-rat immunoglobulin D but without the test compound.
Negative control treating well: represents the B cell activation ratio in rat whole blood without the test compound and without immunoglobulin stimulation.
Through the above-mentioned test, the compound of the present invention has a potency to inhibit B cell activation in rat whole blood.
In general terms: Flow cytometry measures light scatter and fluorescence of single cells or particles in a stream.

A further test addresses BTK recombinant protein (Homo sapiens (Human), UniProt Q06187). The test can be described thus: Determination of biochemical BTK (Z'-LYTE kinase assay). The method in brief:
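Human BTK recombinant kinase (3.32 nM final) was preincubated with compound for 30 min at 4 °C. Reaction ran 1 h at room temperature with Tyr01 FRET peptide (2 μM) and ATP (32 μM); development protease then added. Coumarin 445 nm/fluorescein 520 nm emission ratio (400 nm excitation) gave inhibition across 8 concentrations, 3000–1.37 nM.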

Sequence of BTK recombinant protein (Q06187 whole entry): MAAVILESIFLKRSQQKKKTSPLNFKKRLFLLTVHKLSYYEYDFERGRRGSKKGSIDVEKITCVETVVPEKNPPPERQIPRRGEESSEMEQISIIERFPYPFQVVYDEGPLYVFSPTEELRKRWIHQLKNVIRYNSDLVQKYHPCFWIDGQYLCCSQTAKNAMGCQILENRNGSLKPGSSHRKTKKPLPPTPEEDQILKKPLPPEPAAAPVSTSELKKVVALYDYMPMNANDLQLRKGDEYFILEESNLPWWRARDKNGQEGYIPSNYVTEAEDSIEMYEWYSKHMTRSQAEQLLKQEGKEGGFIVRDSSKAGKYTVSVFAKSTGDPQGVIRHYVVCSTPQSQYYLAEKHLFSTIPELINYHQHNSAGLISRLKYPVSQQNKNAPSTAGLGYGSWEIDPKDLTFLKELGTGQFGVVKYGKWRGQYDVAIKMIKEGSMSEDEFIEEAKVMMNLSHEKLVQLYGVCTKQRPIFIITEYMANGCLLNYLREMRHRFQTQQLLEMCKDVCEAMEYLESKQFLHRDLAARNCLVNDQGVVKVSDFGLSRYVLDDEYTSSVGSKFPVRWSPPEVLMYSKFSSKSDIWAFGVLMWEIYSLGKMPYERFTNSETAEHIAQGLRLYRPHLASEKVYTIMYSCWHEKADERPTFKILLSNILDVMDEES

For the compound `C[C@H]1CN(C2COC2)CCN1c1ccc(Nc2cc(-c3ccnc(-n4ccn5c(c(F)c6cc(F)ccc65)c4=O)c3CO)cn(C)c2=O)nc1` [Compound 60], the IC50 in test [1] came out at 34 nM; at BTK recombinant protein, 4 nM. On the same counts, the results for `C[C@H]1CN(C2COC2)CCN1c1ccc(Nc2cc(-c3ccnc(-n4ccn5c6c(cc5c4=O)CC(F)(F)CC6)c3CO)cn(C)c2=O)nc1` [Compound 58] are 6 nM and 8 nM.

As to `C[C@H]1CN(C2COC2)CCN1c1ccc(Nc2cc(-c3ccnc(-n4ccn5c6c(cc5c4=O)CCC6)c3CO)cn(C)c2=O)nc1` [Compound 64], the values for the IC50 (in test [1]; on BTK recombinant protein) were 52 nM and 20 nM, respectively.

Regarding `CN1CCN(C(=O)c2ccc(Nc3cc(-c4ccnc(-n5ccn6c7c(cc6c5=O)CC(C)(C)C7)c4CO)cn(C)c3=O)nc2)CC1` [Compound 48], the half-maximal inhibitory concentration (IC50) in test [1] was found to be 26 nM; at BTK recombinant protein it was 4 nM. `CC1CCc2cc3c(=O)n(-c4nccc(-c5cc(Nc6ccc(N7CCN(C8COC8)C[C@@H]7C)cn6)c(=O)n(C)c5)c4CO)ccn3c2C1` (mixture of isomers) [Compound 78]: the results for the IC50 (in test [1]; on BTK recombinant protein) were 41 nM and 8 nM, respectively. Consider `C[C@H]1CN(C2COC2)CCN1c1ccc(Nc2cc(-c3ccnc(-n4cnn5c6c(cc5c4=O)CC(C)(C)C6)c3CO)cn(C)c2=O)nc1` [Compound 63], for which the values for the IC50 (in test [1]; on BTK recombinant protein) were 44 nM and 8 nM, respectively. On the same counts, the results for `C[C@H]1CN(C2COC2)CCN1c1ccc(Nc2cc(-c3ccnc(-n4ncn5c6c(cc5c4=O)CC(C)(C)C6)c3CO)cn(C)c2=O)nc1` [Compound 79] are 6 nM and under 1 nM.

For the compound `C[C@H]1CN(C2COC2)CCN1c1ccc(Nc2cc(-c3ccnc(-n4ccn5c(cc6cc(F)ccc65)c4=O)c3CO)cn(C)c2=O)nc1` [Compound 75], the concentration for half-maximal inhibition (IC50) in test [1] turned out to be 85 nM; at BTK recombinant protein, 11 nM. With `C[C@@H]1CN(c2ccc(Nc3cc(-c4ccnc(-n5ccn6c7c(cc6c5=O)CCC7)c4CO)cn(C)c3=O)nc2)[C@@H](C)CN1C1COC1` [Compound 2, 2-(5-((5-((2S,5R)-2,5-dimethyl-4-(oxetan-3-yl)piperazin-1-yl)pyridin-2-yl)amino)-3′-(hydroxymethyl)-1-methyl-6-oxo-1,6-dihydro-[3,4′-bispyridin]-2′-yl)-7,8-dihydro-2H-cyclopenta[4,5]pyrrolo[1,2-a]pyrazin-1(6H)-one], the half-inhibitory concentration (IC50) worked out at 54 nM in test [1] and 9 nM on BTK recombinant protein. `CCn1cc(Nc2cc(-c3ccnc(-n4ccn5c6c(cc5c4=O)CC(C)(C)C6)c3CO)cn3ncnc23)nn1` [Compound 71]: the concentration for half-maximal inhibition (IC50) stood at 92 nM in test [1] and 6 nM on BTK recombinant protein. Taken in the same sequence, the figures for `C[C@H]1CN(C2COC2)CCN1c1ccc(Nc2cc(-c3ccnc(-n4ccn5c(c(F)c6ccccc65)c4=O)c3CO)cn(C)c2=O)nc1` [Compound 57] were 21 nM and 6 nM. On the same counts, the results for `C[C@H]1CN(C)CCN1c1ccc(Nc2cc(-c3ccnc(-n4ccn5c6c(cc5c4=O)CC(C)(C)C6)c3CO)cn(C)c2=O)nc1` [Compound 26] are 19 nM and 7 nM. On to `C[C@H]1CN(C2COC2)CCN1c1ccc(Nc2cc(-c3ccnc(-n4ccn5c6c(cc5c4=O)CC(C)(C)C6)c3CO)n[nH]c2=O)nc1` [Compound 49], for which the values for the IC50 (in test [1]; at BTK recombinant protein) were 10 nM and 6 nM, respectively. Taken in the same sequence, the figures for `Cn1cc(Nc2cc(-c3ccnc(-n4ccn5c6c(cc5c4=O)CC(C)(C)C6)c3CO)cn(C)c2=O)nn1` [Compound 28] were 78 nM and 3 nM. Taken in the same sequence, the figures for `COCCN(C)c1ccc(Nc2cc(-c3ccnc(-n4ccn5c6c(cc5c4=O)CC(C)(C)C6)c3CO)cn(C)c2=O)nc1` [Compound 50] were 84 nM and 24 nM. Taken in the same sequence, the figures for `C[C@H]1CN(C2COC2)CCN1c1ccc(Nc2cc(-c3ccnc(-n4ccn5c6c(cc5c4=O)CC(C)(C)C6)c3CO)cn3ncnc23)nc1` [Compound 21] were 24 nM and 8 nM. On to `C[C@@H]1CN(c2ccc(Nc3cc(-c4ccnc(-n5ccn6c7c(cc6c5=O)CC(C)(C)C7)c4CO)cn(C)c3=O)nc2)[C@@H](C)CN1C1COC1` [Compound 27], for which the IC50 in test [1] is 5 nM; on BTK recombinant protein, 7 nM. Regarding `C[C@H]1CN(C2COC2)CCN1c1ccc(Nc2cc(-c3ccnc(-n4ccn5c6c(cc5c4=O)CCC(F)(F)C6)c3CO)cn(C)c2=O)nc1` [Compound 56], at BTK recombinant protein, the half-maximal inhibitory concentration (IC50) was 20 nM. On the same count and under the same terms, the value for `C[C@H]1CN(C2COC2)CCN1c1ccc(Nc2cc(-c3ccnc(-n4ccn5c(cc6ccccc65)c4=O)c3CO)cn(C)c2=O)nc1` [Compound 74] was 17 nM.

Compound `C[C@H]1CN(C2COC2)CCN1c1ccc(Nc2cc(-c3ccnc(-n4ccn5c6c(cc5c4=O)CC(C)(C)C6)c3CO)nn(C)c2=O)nc1` [Compound 22] registered a 50% inhibitory concentration (IC50) in test [1] of 34 nM. Turning to `Cn1cc(-c2ccnc(-n3ccn4c5c(cc4c3=O)CC(C)(C)C5)c2CO)cc(Nc2cn(CCF)nn2)c1=O` [Compound 31], the IC50 in test [1] worked out at 93 nM; on BTK recombinant protein it was 9 nM. On to `C[C@H]1CN(C2COC2)CCN1c1cnc(Nc2cc(-c3ccnc(-n4ccn5c6c(cc5c4=O)CC(C)(C)C6)c3CO)cn(C)c2=O)cn1` [Compound 43], for which the 50% inhibitory concentration (IC50) in test [1] worked out at 52 nM; at BTK recombinant protein, 9 nM. Taken in the same sequence, the figures for `C[C@@H]1CN(c2ccc(Nc3cc(-c4ccnc(-n5ccn6c(c(F)c7ccccc76)c5=O)c4CO)cn(C)c3=O)nc2)[C@@H](C)CN1C1COC1` [Compound 59] were 19 nM and 5 nM. Taken in the same sequence, the figures for `COCCN1CCN(c2ccc(Nc3cc(-c4ccnc(-n5ccn6c7c(cc6c5=O)CC(C)(C)C7)c4CO)cn(C)c3=O)nc2)[C@@H](C)C1` [Compound 8] were 17 nM and 12 nM. Regarding `C[C@H]1CN(C2COC2)CCN1c1cnc(Nc2cc(-c3ccnc(-n4ccn5c6c(cc5c4=O)CC(C)(C)C6)c3CO)cn(C)c2=O)nc1` [Compound 44], at BTK recombinant protein, the IC50 is 22 nM.

In test [1], `C[C@H]1CN(C2COC2)CCN1c1ccc(Nc2cc(-c3ccnc(-n4ccn5c6c(cc5c4=O)CC(C)(C)C6)c3CO)cn(C)c2=O)nc1` [Compound 19] had a half-maximal inhibitory concentration (IC50) of 3 nM. Take `Cn1cc(-c2ccnc(-n3ccn4c5c(cc4c3=O)CC(C)(C)C5)c2CO)cc(Nc2ccc(N3CCN(C4COC4)CC3)cn2)c1=O` [Compound 9]: the 50% inhibitory concentration (IC50) at BTK recombinant protein is under 1 nM.

For the compound `C[C@H]1CN(C2COC2)CCN1c1ccc(Nc2cc(-c3ccnc(-n4ccn5c6c(cc5c4=O)CC(C)(C)C6)c3CO)cn3c(F)cnc23)nc1` [Compound 23], the IC50 in test [1] is 277 nM; on BTK recombinant protein, 44 nM.

For the origin of these results see US11478474B2, “2-(3′-(hydroxymethyl)-1-methyl-5-((5-(2-methyl-4-(oxetan-3-yl)piperazin-1-yl)pyridin-2-yl)amino)-6-oxo-1,6-dihydro-[3,4′-bipyridin]-2′-yl)-7,7-dimethyl-7,8-dihydro-2H-cyclopenta[4,5]pyrrolo[1,2-a]pyrazin-1(6H)-one as a BTK inhibitor” (HUTCHISON MEDIPHARMA LIMITED, priority 2020, dated 2022).
